According to patent US9783505B2, “Substituted diaminopyrimidyl compounds, compositions thereof, and methods of treatment therewith” (Signal Pharmaceuticals, LLC, priority 2013, dated 2017):
Where two headings read alike, the source gives them in different places.

What was measured:
PKC delta = target: T1, PKC delta (Homo sapiens, UniProt Q05655); test: PKC delta Assay (384-well time resolved fluorescence, IMAP TR-FRET); format: biochemical; details: selectivity for PKC-theta over PKC-delta
T1 construct: purchased Invitrogen
T1 sequence (Q05655 whole entry): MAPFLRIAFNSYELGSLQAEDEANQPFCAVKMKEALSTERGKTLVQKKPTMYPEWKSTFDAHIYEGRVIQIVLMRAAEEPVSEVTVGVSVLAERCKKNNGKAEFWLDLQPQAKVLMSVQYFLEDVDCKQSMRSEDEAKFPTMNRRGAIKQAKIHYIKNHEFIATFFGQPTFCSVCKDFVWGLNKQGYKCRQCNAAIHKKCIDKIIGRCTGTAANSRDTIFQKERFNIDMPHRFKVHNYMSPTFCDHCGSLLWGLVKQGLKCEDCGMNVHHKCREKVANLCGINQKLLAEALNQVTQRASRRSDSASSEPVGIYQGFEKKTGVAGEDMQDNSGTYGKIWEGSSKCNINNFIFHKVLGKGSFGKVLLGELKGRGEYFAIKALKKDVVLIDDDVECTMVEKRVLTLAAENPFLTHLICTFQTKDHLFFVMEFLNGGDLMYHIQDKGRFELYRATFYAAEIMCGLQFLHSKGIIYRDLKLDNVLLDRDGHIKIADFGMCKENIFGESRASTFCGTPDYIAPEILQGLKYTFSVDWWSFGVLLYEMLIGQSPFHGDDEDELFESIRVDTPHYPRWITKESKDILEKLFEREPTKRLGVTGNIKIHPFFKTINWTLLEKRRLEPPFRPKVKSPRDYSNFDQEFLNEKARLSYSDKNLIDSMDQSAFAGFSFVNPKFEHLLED
Method: PKC delta Assay. A 384-well time resolved fluorescence assay was used to monitor PKC delta activity. The PKC delta assay was run in the following assay buffer: 50 mM HEPES pH 7.6, 10 mM MgCl2, 1 mM DTT, 0.01% Triton X-100, 0.01% BSA and 0.1 mM EDTA. To initiate the reaction, 200 nM of Fam-labeled S6-derived peptide (Molecular Devices) and 10 μM of ATP were mixed with 1.5 nM of PKC delta (Invitrogen), for a total assay volume of 25 μL in each well. The assay was incubated at room temperature for 2 hours and terminated using a 60 μL/well mixture of Detection Binding Solution: 70% IMAP Progressive Binding Buffer A, 30% IMAP Progressive Binding Buffer B, 1:600 Progressive Binding Reagent, and 1:400 TR-FRET Tb Donor (Molecular Devices). The assay plates were then incubated overnight at room temperature and read on the Perkin-Elmer Envision Reader.

His-PKC-theta = target: T2, His-PKC-theta (Homo sapiens, UniProt Q04759); test: PKC-theta Assay (384-well time resolved fluorescence, IMAP TR-FRET); format: biochemical; details: read-out: Act. Level (IC50 in the PKC-theta Assay)
T2 construct: His; purchased Invitrogen
T2 sequence (Q04759 whole entry): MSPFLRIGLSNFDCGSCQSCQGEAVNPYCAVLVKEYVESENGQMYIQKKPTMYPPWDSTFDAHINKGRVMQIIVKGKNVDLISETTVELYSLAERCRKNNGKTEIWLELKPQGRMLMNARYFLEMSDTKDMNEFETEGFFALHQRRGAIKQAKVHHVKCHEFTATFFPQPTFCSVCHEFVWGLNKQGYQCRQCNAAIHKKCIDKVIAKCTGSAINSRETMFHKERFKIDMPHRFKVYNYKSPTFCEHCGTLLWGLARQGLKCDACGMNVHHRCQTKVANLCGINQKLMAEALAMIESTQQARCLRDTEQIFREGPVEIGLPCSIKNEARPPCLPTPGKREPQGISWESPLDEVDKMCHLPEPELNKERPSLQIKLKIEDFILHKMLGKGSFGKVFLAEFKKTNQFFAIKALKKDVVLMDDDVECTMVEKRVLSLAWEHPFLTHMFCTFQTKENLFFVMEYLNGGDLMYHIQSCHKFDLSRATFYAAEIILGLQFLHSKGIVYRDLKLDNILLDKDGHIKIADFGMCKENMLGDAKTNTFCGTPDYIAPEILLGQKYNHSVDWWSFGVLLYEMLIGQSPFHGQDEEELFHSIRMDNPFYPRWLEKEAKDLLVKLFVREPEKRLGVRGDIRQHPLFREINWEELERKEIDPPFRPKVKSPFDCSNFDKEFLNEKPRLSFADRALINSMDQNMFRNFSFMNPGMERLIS
Method in brief: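 Enzyme at 142 pM phosphorylated 200 nM Fam-S6 peptide with 10 μM ATP in 50 mM HEPES pH 7.6, 10 mM MgCl2, 1 mM DTT for 2 h at room temperature. Product was detected after overnight incubation with IMAP binding reagent and Tb donor by time-resolved FRET.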

CC1(C)C(O)C[C@H]1Nc1nc(NCCc2cnccn2)ncc1C#N (some centres unmarked) [Cmpd 226]
Sel. Level (ratio of IC50 PKC-delta/IC50 PKC-theta) (PKC delta): H (selectivity level of 5-fold or less (selectivity level H)) | IC50 (His-PKC-theta): 2000 to 10000 nM

CC(F)(F)COc1ncncc1CNc1ncc(C#N)c(N[C@H]2CCC[C@@](C)(O)C2)n1 [Cmpd 287]
Sel. Level (ratio of IC50 PKC-delta/IC50 PKC-theta) (PKC delta): F (selectivity of between 20- and 100-fold (selectivity level F)) | IC50 (His-PKC-theta): 100 to 800 nM

CC1(C)C[C@H](Nc2nc(NCCc3ccc(OCC(F)(F)F)nc3)ncc2C#N)CC[C@@H]1O [Cmpd 253]
Sel. Level (ratio of IC50 PKC-delta/IC50 PKC-theta) (PKC delta): F (selectivity of between 20- and 100-fold (selectivity level F)) | IC50 (His-PKC-theta): 100 to 800 nM

C[C@]1(O)CC2(C[C@H](Nc3nc(NCCC4C(=O)Nc5ccccc54)ncc3C#N)C2)C1 (some centres unmarked) [Cmpd 301]
Sel. Level (ratio of IC50 PKC-delta/IC50 PKC-theta) (PKC delta): F (selectivity of between 20- and 100-fold (selectivity level F)) | IC50 (His-PKC-theta): 100 to 800 nM

CC1(C)[C@H](O)CCC[C@H]1Nc1nc(NCCC2C(=O)Nc3ccc(F)cc32)ncc1C#N (some centres unmarked) [Cmpd 314]
Sel. Level (ratio of IC50 PKC-delta/IC50 PKC-theta) (PKC delta): H (selectivity level of 5-fold or less (selectivity level H)) | IC50 (His-PKC-theta): 100 to 800 nM

CCOc1cc(CCNc2ncc(C#N)c(N[C@@H]3CC[C@H](O)C(C)(C)C3)n2)ccn1 [Cmpd 330]
Sel. Level (ratio of IC50 PKC-delta/IC50 PKC-theta) (PKC delta): G (selectivity between 5- and 20-fold (selectivity level G)) | IC50 (His-PKC-theta): 100 to 800 nM

CC1(C)C[C@H](Nc2nc(NCCc3ccncn3)ncc2C#N)CC[C@@H]1O [Cmpd 278]
Sel. Level (ratio of IC50 PKC-delta/IC50 PKC-theta) (PKC delta): H (selectivity level of 5-fold or less (selectivity level H)) | IC50 (His-PKC-theta): 2000 to 10000 nM

CC1(C)[C@H](O)CCC[C@@H]1Nc1nc(NCCC2C(=O)Nc3cc(F)ccc32)ncc1C#N (some centres unmarked) [Cmpd 311]
Sel. Level (ratio of IC50 PKC-delta/IC50 PKC-theta) (PKC delta): G (selectivity between 5- and 20-fold (selectivity level G)) | IC50 (His-PKC-theta): 100 to 800 nM

Cc1cccc2c1NC(=O)C2CCNc1ncc(C#N)c(N[C@@H]2C[C@H](O)C2(C)C)n1 (some centres unmarked) [Cmpd 260]
Sel. Level (ratio of IC50 PKC-delta/IC50 PKC-theta) (PKC delta): F (selectivity of between 20- and 100-fold (selectivity level F)) | IC50 (His-PKC-theta): < 100 nM

CC1(C)C[C@H](Nc2nc(NCCc3cnc(C4CC4)nc3)ncc2C#N)CC[C@@H]1O [Cmpd 218]
Sel. Level (ratio of IC50 PKC-delta/IC50 PKC-theta) (PKC delta): H (selectivity level of 5-fold or less (selectivity level H)) | IC50 (His-PKC-theta): 2000 to 10000 nM

Cc1ccc(CCNc2ncc(C#N)c(N[C@@H]3C[C@H](O)C3(C)C)n2)cn1 [Cmpd 235]
Sel. Level (ratio of IC50 PKC-delta/IC50 PKC-theta) (PKC delta): H (selectivity level of 5-fold or less (selectivity level H)) | IC50 (His-PKC-theta): 2000 to 10000 nM

COc1cccc(CCNc2ncc(C#N)c(N[C@H]3CC[C@@H](O)CC3)n2)n1 [Cmpd 327]
Sel. Level (ratio of IC50 PKC-delta/IC50 PKC-theta) (PKC delta): H (selectivity level of 5-fold or less (selectivity level H)) | IC50 (His-PKC-theta): 2000 to 10000 nM

Cc1cc(CCNc2ncc(C#N)c(N[C@H]3CC[C@@H](C(N)=O)CC3)n2)ncn1 [Cmpd 319]
Sel. Level (ratio of IC50 PKC-delta/IC50 PKC-theta) (PKC delta): H (selectivity level of 5-fold or less (selectivity level H)) | IC50 (His-PKC-theta): 2000 to 10000 nM

CC(F)(F)COc1ncncc1CNc1ncc(C#N)c(N[C@H]2CCC[C@H](O)C2(C)C)n1 [Cmpd 296]
Sel. Level (ratio of IC50 PKC-delta/IC50 PKC-theta) (PKC delta): F (selectivity of between 20- and 100-fold (selectivity level F)) | IC50 (His-PKC-theta): 100 to 800 nM

CC1(C)C[C@H](Nc2nc(NCCn3ccc(-c4ccccc4)n3)ncc2C#N)CC[C@@H]1O [Cmpd 209]
Sel. Level (ratio of IC50 PKC-delta/IC50 PKC-theta) (PKC delta): H (selectivity level of 5-fold or less (selectivity level H)) | IC50 (His-PKC-theta): 2000 to 10000 nM

CC1(C)C[C@H](Nc2nc(NCCc3ccccn3)ncc2C#N)CC[C@@H]1O [Cmpd 282]
Sel. Level (ratio of IC50 PKC-delta/IC50 PKC-theta) (PKC delta): H (selectivity level of 5-fold or less (selectivity level H)) | IC50 (His-PKC-theta): 2000 to 10000 nM

Cc1cc(C(F)(F)F)nn1CCNc1ncc(C#N)c(N[C@@H]2CC[C@H](O)C(C)(C)C2)n1 [Cmpd 210]
Sel. Level (ratio of IC50 PKC-delta/IC50 PKC-theta) (PKC delta): G (selectivity between 5- and 20-fold (selectivity level G)) | IC50 (His-PKC-theta): 800 to 2000 nM

CC(F)(F)COc1ncncc1CNc1ncc(C#N)c(N[C@H]2CC3(C2)C[C@](C)(O)C3)n1 (some centres unmarked) [Cmpd 294]
Sel. Level (ratio of IC50 PKC-delta/IC50 PKC-theta) (PKC delta): F (selectivity of between 20- and 100-fold (selectivity level F)) | IC50 (His-PKC-theta): 100 to 800 nM

CC1(C)C[C@H](Nc2nc(NCCc3cccc4cc[nH]c34)ncc2C#N)CCC1O (some centres unmarked) [Cmpd 217]
Sel. Level (ratio of IC50 PKC-delta/IC50 PKC-theta) (PKC delta): G (selectivity between 5- and 20-fold (selectivity level G)) | IC50 (His-PKC-theta): 100 to 800 nM

CCc1ccc2c(c1)C(CCNc1ncc(C#N)c(N[C@@H]3CC[C@H](O)C(C)(C)C3)n1)C(=O)N2 (some centres unmarked) [Cmpd 249]
Sel. Level (ratio of IC50 PKC-delta/IC50 PKC-theta) (PKC delta): E (selectivity (Sel. Level=ratio of IC50 PKC-delta/IC50 PKC-theta) of >100-fold (selectivity level E)) | IC50 (His-PKC-theta): < 100 nM

Cc1nc(CCNc2ncc(C#N)c(N[C@@H]3CC(O)C3(C)C)n2)no1 (some centres unmarked) [Cmpd 233]
Sel. Level (ratio of IC50 PKC-delta/IC50 PKC-theta) (PKC delta): H (selectivity level of 5-fold or less (selectivity level H)) | IC50 (His-PKC-theta): 2000 to 10000 nM

CC1(C)[C@@H](O)C[C@H]1Nc1nc(NCCc2ccco2)ncc1C#N [Cmpd 234]
Sel. Level (ratio of IC50 PKC-delta/IC50 PKC-theta) (PKC delta): G (selectivity between 5- and 20-fold (selectivity level G)) | IC50 (His-PKC-theta): 800 to 2000 nM

CC1(C)[C@@H](O)C[C@H]1Nc1nc(NCCc2ncon2)ncc1C#N [Cmpd 230]
Sel. Level (ratio of IC50 PKC-delta/IC50 PKC-theta) (PKC delta): H (selectivity level of 5-fold or less (selectivity level H)) | IC50 (His-PKC-theta): 2000 to 10000 nM

CC1(C)C[C@H](Nc2nc(NCCc3ccc4ccccc4n3)ncc2C#N)CC[C@@H]1O [Cmpd 256]
Sel. Level (ratio of IC50 PKC-delta/IC50 PKC-theta) (PKC delta): G (selectivity between 5- and 20-fold (selectivity level G)) | IC50 (His-PKC-theta): 800 to 2000 nM

CC1(C)C[C@H](Nc2nc(NCCC3(O)C(=O)Nc4ccccc43)ncc2C#N)CC[C@@H]1O (some centres unmarked) [Cmpd 184]
IC50 (His-PKC-theta): 100 to 800 nM

CC1(C)[C@@H](Nc2nc(NCCc3cccc(Cl)c3)ncc2C#N)C[C@@H]1N [Cmpd 157]
IC50 (His-PKC-theta; Table 2): 100 to 800 nM

Cc1c(CO)cccc1Nc1nc(NCc2cnccc2C(F)(F)F)ncc1C#N [Cmpd 7]
IC50 (His-PKC-theta; Table 2): 100 to 800 nM

CC(C)(CO)Nc1nc(NCc2cnccc2C(F)(F)F)ncc1C#N [Cmpd 15]
IC50 (His-PKC-theta; Table 2): 100 to 800 nM

Cc1nnnn1-c1ccc(CCNc2ncc(C#N)c(N[C@@H]3CCC[C@@](C)(O)C3)n2)cc1 [Cmpd 191]
IC50 (His-PKC-theta; Table 2): 2000 to 10000 nM

COC1CC(Nc2nc(NCc3cnccc3C(F)(F)F)ncc2C(F)(F)F)C1(C)C (centres unmarked) [Cmpd 74]
IC50 (His-PKC-theta): < 100 nM

CCc1ccc(CCNc2ncc(C#N)c(N[C@@H]3CC[C@H](O)C(C)(C)C3)n2)cc1 [Cmpd 34]
IC50 (His-PKC-theta; Table 2): 100 to 800 nM

CC1(C)C[C@H](Nc2nc(NCCc3ccc(C(=O)O)cc3)ncc2C#N)CC[C@@H]1O [Cmpd 153]
IC50 (His-PKC-theta; Table 2): 800 to 2000 nM

CC1(C)[C@@H](O)C[C@H]1Nc1nc(NCc2cncnc2C(F)(F)F)ncc1C#N [Cmpd 61]
IC50 (His-PKC-theta): < 100 nM

C[C@]1(O)CC[C@@H](Nc2nc(NCc3cncnc3-c3ccccc3)ncc2C(F)(F)F)CC1 [Cmpd 80]
IC50 (His-PKC-theta): < 100 nM

N#Cc1ccc(CCNc2ncc(C#N)c(N[C@H]3CC[C@@H](O)CC3)n2)cc1 [Cmpd 73]
IC50 (His-PKC-theta; Table 2): 800 to 2000 nM

N#Cc1cnc(NCc2ccccc2C(F)(F)F)nc1N[C@H]1CC[C@@H](O)CC1 [Cmpd 8]
IC50 (His-PKC-theta; Table 2): 100 to 800 nM

Cc1nnnn1-c1ccc(CCNc2ncc(C#N)c(N[C@@H]3CC[C@H](O)C(C)(C)C3)n2)cc1 [Cmpd 167]
IC50 (His-PKC-theta; Table 2): 100 to 800 nM

Cc1ccc(CCNc2ncc(C#N)c(N[C@@H]3CC[C@H](O)C(C)(C)C3)n2)o1 [Cmpd 192]
IC50 (His-PKC-theta): 100 to 800 nM

Cc1cc(C(F)(F)F)c(CNc2ncc(C(F)(F)F)c(N[C@@H]3CC[C@H](O)C(C)(C)C3)n2)c[n+]1[O-] [Cmpd 55]
IC50 (His-PKC-theta): < 100 nM

CCc1ncncc1CNc1ncc(C#N)c(N[C@H]2C[C@H](O)C2(C)C)n1 [Cmpd 142]
IC50 (His-PKC-theta): 800 to 2000 nM

CC(C)c1ncncc1CNc1ncc(C#N)c(N[C@@H]2C[C@H](O)C2(C)C)n1 [Cmpd 35]
IC50 (His-PKC-theta): < 100 nM

CC1(C)[C@@H](O)C[C@H]1Nc1nc(NCCc2ccc(C#N)c(Cl)c2)ncc1C#N [Cmpd 142]
IC50 (His-PKC-theta; Table 2): 100 to 800 nM

CCc1ccc2c(c1)C(CCNc1ncc(C#N)c(N[C@@H]3C[C@H](O)C3(C)C)n1)C(=O)N2 (some centres unmarked) [Cmpd 261]
IC50 (His-PKC-theta): < 100 nM

N#Cc1cnc(NCc2ccccc2Oc2ccc(F)cc2)nc1N[C@H]1CC[C@@H](O)CC1 [Cmpd 12]
IC50 (His-PKC-theta; Table 2): 800 to 2000 nM

CC(C)c1ncncc1CNc1ncc(C#N)c(N[C@@H]2C[C@H](CO)C2(C)C)n1 [Cmpd 54]
IC50 (His-PKC-theta): < 100 nM

Cc1[nH]c2ccccc2c1CCNc1ncc(C#N)c(N[C@@H]2CC[C@H](O)C(C)(C)C2)n1 [Cmpd 168]
IC50 (His-PKC-theta): 100 to 800 nM

CC1(C)[C@@H](O)C[C@H]1Nc1nc(NCc2cncnc2OCC(F)F)ncc1C(F)(F)F [Cmpd 7]
IC50 (His-PKC-theta): < 100 nM
